The test system of data set [1] is rat aortic rings. Put plainly: Vasorelaxant activity test, high-potassium model. The following applies: rat aortic rings constricted with high K+ (60 mmol/L); a: mean N = 6; b: single determination; -- = No activity. An excerpt: (§1) Abnormalities in the Rho/ROCK signaling pathway are associated with various cardiovascular diseases, especially hypertension. The inhibition of the Rho/ROCK pathway can cause the vessels to relax. The norepinephrine (NE)- or potassium chloride (KCl)-induced model of the rat aortic ring can trigger sustained vessel contraction and is usually used to evaluate vasorelaxant activity. DL0805 has shown vasorelaxant activity. Therefore, the nine compounds with significant inhibition against ROCK I were further tested for their vasorelaxant activity in rat aortic rings in both the high-potassium and NE models (Table 3). […] The potent active compound 4b with excellent activity has been further evaluated, and further pharmacokinetic and safety evaluations are in progress.
(§2) Male Sprague-Dawley rats weighing 240–280 g (Vital River Laboratories, Beijing, China) were maintained in a 12-h light/dark cycle at 24 °C in a relative humidity of 60% room, and received food and water ad libitum. The animal care and handling were performed in accordance with the Guide for the Care and Use of Laboratory Animals published by the US National Institutes of Health and the Laboratories Institutional Animal Care and Use Committee of the Chinese Academy of Medical Science and Peking Union Medical College (ethic approval number: 00001012).
(§3) The vasorelaxant activity assay was performed as described previously. Briefly, the descending thoracic aorta was isolated after rats were euthanized by cervical dislocation. Then, the aorta was cut into ring segments (3–4 mm in length). The endothelial layer of the aorta was destroyed by gently rubbing the luminal surface with a moist cotton swab when necessary. Two stainless-steel triangles were inserted into the lumen of each ring. One triangle was fixed, and the other attached to a force transducer. Changes in isometric force were recorded on a BIOPAC polygraph (MP100WSW, Biopac Systems, Inc, Goleta, CA, USA). The rings were mounted in organ baths containing 10 mL Krebs-Henseleit (K-H) buffer with the following composition (mM): NaCl 120, KCl 4.8, MgSO4 1.4, KH2PO4 1.2, glucose 11.0, CaCl2 2.5, NaHCO3 25.0 and EDTA 0.01. The K-H buffer was continuously bubbled with 95% O2/5% CO2 at 37 °C. Rings were allowed to equilibrate for 60 min at a resting tension of 1.2 g with changes of buffer every 20 min.
(§4) After the equilibration period, the aortic rings were constricted with a high K^+ (60 mM) K-H solution to stimulate the tissue and to test its availability. Then, the rings were washed with normal K-H buffer to restore the basic tension of 1.2 g. The aortic rings were then stimulated with a high K^+ (60 mmol/L) K-H buffer ornorepinephrine (1 μM) to evaluate the vasorelaxant effects of the compounds. When the contraction reached the platform, compounds were added to the bath in batches at 5-min intervals to reach the accumulative concentrations of 1, 2, 5, 10, 25 and 50 μM. The tension of vessels was recorded and nonlinear regression was used to calculate the EC50 values.

Data set [2] addresses T1, ROCK I (Homo sapiens, UniProt Q13464).
T1 construct: purchased Cyclex, Nagoya, Japan CY-1160
Set-up: method as in PMID 22609784. The note with it: lead discovered by high-throughput screening, previous article; read-out: IC50 against ROCK I; cited from earlier work.

For data set [3], the system named is rat aortic rings. Description: Vasorelaxant activity test, NE model. The following applies: rat aortic rings constricted with norepinephrine (1 μM); a: mean N = 6; b: single determination; -- = No activity.
Text: as §1, §2, §3, §4

Data set [4] has as its target T1, ROCK I. Put plainly: Rho kinase activity assay (Cyclex CY-1160 kit). The data set is classed as biochemical. The following applies: for pIC50: a: means of multiple experiments (N = 4), errors within 30% of the mean, b: single determinations, read-out: IC50 against ROCK I; for inhibition at 20 µM: compound concentration 20 μM, single determinations; for ROCK I activity compared in words: comparison with DL0805 or between series; for fold more active than DL0805 (ROCK I IC50): relative to DL0805 IC50 6.7 μM. The procedure: Briefly, the compounds at 20 μM were pre-incubated in a system wherein ROCK I (0.02 ng/μL) phosphorylates the kinase substrate’s myosin-binding subunit (MBS) pre-absorbed onto the microplate in the presence of Mg^2+ and ATP. Then, the system was washed after incubation at 30 °C for 30 min. 100 μL of horseradish peroxidase-conjugated anti-AF20 antibody was added to the wells and then incubated for 30 min at room temperature. The reaction system was then incubated with the substrate tetra-methylbenzidine (TMB), which can be catalyzed from a colorless solution to a blue solution. The absorbance was measured at a wavelength of 450 nm on a microplate reader. The color reflects the relative level of ROCK I activity. The inhibitory rates of the compounds on ROCK I were obtained from OD 450 nm and the IC50 values were calculated by nonlinear regression.

For data set [5], the system named is rat aortic rings. Description: Ex-vivo vasorelaxant activity in rat aortic rings (model not specified).
Text: as §1
The vasorelaxant activity assay was performed as described previously. Briefly, the descending thoracic aorta was isolated after rats were euthanized by cervical dislocation. Then, the aorta was cut into ring segments (3–4 mm in length). […] Changes in isometric force were recorded on a BIOPAC polygraph (MP100WSW, Biopac Systems, Inc, Goleta, CA, USA). […]
After the equilibration period, the aortic rings were constricted with a high K^+ (60 mM) K-H solution to stimulate the tissue and to test its availability. […] The tension of vessels was recorded and nonlinear regression was used to calculate the EC50 values.

A word on the pEC50: it is −log10 of the EC50, conventionally taken in molar units. A lower pEC50 goes with a large EC50. Usually pIC50 stands for −log10 of the IC50, conventionally taken in molar units. By inhibition is commonly meant the share of the control response that was lost under treatment. Broadly, the melting point is the temperature of the solid-liquid transition.

pEC50, pIC50: −log10 of the molar value. Read-outs that look alike come from different tables or passages of the source.

T1 sequence (Q13464 whole entry, species assumed): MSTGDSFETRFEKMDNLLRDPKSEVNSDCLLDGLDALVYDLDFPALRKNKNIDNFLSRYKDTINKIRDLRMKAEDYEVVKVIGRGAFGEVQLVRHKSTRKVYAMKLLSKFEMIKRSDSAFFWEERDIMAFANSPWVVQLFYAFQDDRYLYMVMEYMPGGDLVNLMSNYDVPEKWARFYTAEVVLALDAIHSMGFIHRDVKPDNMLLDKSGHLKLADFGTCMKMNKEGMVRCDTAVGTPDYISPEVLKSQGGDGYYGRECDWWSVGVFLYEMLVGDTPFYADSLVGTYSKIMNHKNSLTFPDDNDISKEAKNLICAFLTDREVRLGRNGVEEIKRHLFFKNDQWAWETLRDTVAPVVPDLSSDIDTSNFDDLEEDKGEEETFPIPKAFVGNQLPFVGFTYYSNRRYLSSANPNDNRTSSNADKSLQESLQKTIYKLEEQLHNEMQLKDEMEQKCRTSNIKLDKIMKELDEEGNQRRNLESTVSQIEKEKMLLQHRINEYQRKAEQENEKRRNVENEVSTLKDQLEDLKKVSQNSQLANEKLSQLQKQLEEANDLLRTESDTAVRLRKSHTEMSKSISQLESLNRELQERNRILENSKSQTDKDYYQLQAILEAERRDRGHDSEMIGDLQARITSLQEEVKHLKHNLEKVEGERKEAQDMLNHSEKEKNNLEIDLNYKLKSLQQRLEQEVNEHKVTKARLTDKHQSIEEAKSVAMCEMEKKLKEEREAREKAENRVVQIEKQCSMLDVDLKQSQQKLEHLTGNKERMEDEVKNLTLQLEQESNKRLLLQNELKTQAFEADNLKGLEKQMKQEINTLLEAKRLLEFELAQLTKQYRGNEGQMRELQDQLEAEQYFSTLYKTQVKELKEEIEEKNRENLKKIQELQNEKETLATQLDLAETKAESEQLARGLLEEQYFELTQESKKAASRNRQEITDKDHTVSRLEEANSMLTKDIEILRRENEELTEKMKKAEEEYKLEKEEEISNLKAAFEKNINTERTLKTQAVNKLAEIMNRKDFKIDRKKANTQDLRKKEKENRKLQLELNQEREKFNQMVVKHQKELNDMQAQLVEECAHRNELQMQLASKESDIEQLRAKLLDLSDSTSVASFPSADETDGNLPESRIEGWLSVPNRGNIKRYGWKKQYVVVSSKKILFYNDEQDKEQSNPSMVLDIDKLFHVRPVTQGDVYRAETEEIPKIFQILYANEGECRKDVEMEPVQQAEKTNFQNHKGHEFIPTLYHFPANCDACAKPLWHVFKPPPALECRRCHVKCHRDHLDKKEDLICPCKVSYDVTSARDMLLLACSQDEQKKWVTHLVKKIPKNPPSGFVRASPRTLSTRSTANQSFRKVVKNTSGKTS

With `N#Cc1n[nH]c2ccc([N+](=O)[O-])cc12` [DL0805, 5-Nitro-1H-indazole-3-carbonitrile, reference compound], the pEC50 with rat aortic rings [1] is 5.03; in the data set on rat aortic rings [3], 4.54. Further, the pIC50 on ROCK I [2] is 5.17; at ROCK I [4] it was 5.18. For the same molecule, 20 µM produced 72.3% inhibition against ROCK I [4].
As for `Cc1ccc(CN2CCC(C(=O)Nc3ccc4[nH]ncc4c3)C2)cc1` (centres unmarked) [Compound 4b, N-(1H-Indazol-5-yl)-1-(4-methylbenzyl)pyrrolidine-3-carboxamide], the pEC50 in the data set with rat aortic rings [1] is 5.46. Moreover, in the data set with rat aortic rings [5], the “vasorelaxant activity compared with fasudil” value is “comparable vasorelaxant activity to the approved drug fasudil”. Further, in the data set with rat aortic rings [3], the pEC50 is 5.39. Also, at ROCK I [4], the pIC50 was 6.77, the “ROCK I activity compared in words” value is on record as “activity profiles superior to DL0805”, the inhibition at 20 µM was 75.8% and the “fold more active than DL0805 (ROCK I IC50)” value is listed as 39 fold.
In turn, `O=C(Nc1ccc2[nH]ncc2c1)C1CCN(Cc2ccccc2)C1` (centres unmarked) [Compound 4a, 1-Benzyl-N-(1H-indazol-5-yl)pyrrolidine-3-carboxamide] registered a melting point of 203 to 204 °C. The molecule also showed a negative-log EC50 (pEC50) in the data set on rat aortic rings [1] of 5.40. Besides, the “vasorelaxant activity compared with fasudil” value in the data set on rat aortic rings [5] is given as “comparable vasorelaxant activity to the approved drug fasudil”. Moreover, the pEC50 in the data set on rat aortic rings [3] is 5.25. Moreover, at ROCK I [4], the pIC50 was 6.57, the “ROCK I activity compared in words” value is on record as “activity profiles superior to DL0805”, the inhibition at 20 µM came out at 73.2% and the “fold more active than DL0805 (ROCK I IC50)” value worked out at 24 fold.
